Consider 16 compounds from ChEMBL document CHEMBL1126393, “Design, synthesis and activity against human cytomegalovirus of non-phosphorylatable analogs of toyocamycin, sangivamycin and thiosangivamycin” (Bioorg Med Chem Lett, 1992).

In assay [1] the test system is HFF. Kind of assay: Visual cytotoxicity of compound in uninfected cells determined by examining the effect on growth of HFF cells. Format: functional, Homo sapiens.
The test system of assay [2] is HFF. Kind of assay: In vitro inhibition of human cytomegalovirus in HFF cells by plaque reduction assay. Format: functional, cell-based.
Assay [3] in a line: Cytotoxicity of compound in uninfected cells determined by examining the effect on growth of KBcells. Format: functional, Homo sapiens.
Assay [4] is described as follows: Selectivity index is the ratio of CC50 to IC50. It counts as functional.
Assay [5] has as its system HFF. Kind of assay: Cytotoxicity of compound in uninfected cells determined by examining the effect on growth of HFF cells. Format: functional, Homo sapiens.

Structures are written as SMILES.

Regarding `N#Cc1cn(COC(CO)CO)c2ncnc(N)c12`, the Cytotoxicity in the assay with HFF [1] was more than 100 µM. The same compound displayed an IC50 in the assay on HFF [2] of more than 100 µM.

In assay [3], `NC(=S)c1cn(COCCO)c2ncnc(N)c12` yielded a Cytotoxicity of 115 µM. Further, the SI in assay [4] stood at 13. This compound returned an IC50 in the assay with HFF [2] of 8.8 µM.

`N#Cc1cn(COCCO)c2ncnc(N)c12` displayed a Cytotoxicity in the assay with HFF [1] of more than 100 µM. The concentration for half-maximal inhibition (IC50) in the assay on HFF [2] was more than 100 µM.

On to `CCCn1cc(C#N)c2c(N)ncnc21`, for which the Cytotoxicity in assay [3] was more than 100 µM. Moreover, half-maximal inhibition with HFF [2] (IC50) required 36 µM.

Regarding `NC(=O)c1cn(COC(CO)CO)c2ncnc(N)c12`, in the assay with HFF [5], the Cytotoxicity is more than 100 µM. In addition, the IC50 with HFF [2] was more than 100 µM.

With `NC(=S)c1cn(COC(CO)CO)c2ncnc(N)c12`, the Cytotoxicity in the assay with HFF [5] was more than 100 µM. This compound also had an IC50 with HFF [2] of 6.2 µM.

`CCCn1cc(C(N)=O)c2c(N)ncnc21` displayed a Cytotoxicity in assay [3] of 90 µM. In the assay on HFF [2], this compound displayed an IC50 of more than 100 µM.

The compound `Cn1cc(C(N)=O)c2c(N)ncnc21` returned a Cytotoxicity in assay [3] of more than 100 µM. In the assay on HFF [2], this compound displayed an IC50 of more than 100 µM.

As for `C=CCn1cc(C(N)=O)c2c(N)ncnc21`, the Cytotoxicity in assay [3] worked out at 90 µM. In the assay on HFF [2], this compound displayed a half-inhibitory concentration (IC50) of more than 100 µM.

In the case of `Cn1cc(C#N)c2c(N)ncnc21`, the Cytotoxicity in assay [3] was more than 100 µM. The compound also returned an IC50 in the assay on HFF [2] of more than 100 µM.

For `CCCn1cc(C(=N)S)c2c(N)ncnc21`, the Cytotoxicity in assay [3] stood at 17 µM. Also, the SI in assay [4] is 14. In addition, the 50% inhibitory concentration (IC50) in the assay on HFF [2] was 1.2 µM.

For `NC(=O)c1cn(COCCO)c2ncnc(N)c12`, the Cytotoxicity in the assay on HFF [5] was more than 100 µM. In the assay with HFF [2], this compound came in with a half-inhibitory concentration (IC50) of more than 100 µM.

Regarding `Nc1nc2c(ncn2COC(CO)CO)c(=O)[nH]1` [GANCICLOVIR], in assay [3], the Cytotoxicity was more than 100 µM. Further, in the assay on HFF [2], half-maximal inhibition (IC50) required 8.4 µM.

`Cn1cc(C(=N)S)c2c(N)ncnc21`: in assay [3], the Cytotoxicity was 14.7 µM. In addition, the SI in assay [4] amounted to 12. Also, half-maximal inhibition in the assay with HFF [2] (IC50) required 1.2 µM.

For `C=CCn1cc(C(N)=S)c2c(N)ncnc21`, the Cytotoxicity in assay [3] amounted to 19 µM. The SI in assay [4] worked out at 9. Further, the half-inhibitory concentration (IC50) in the assay on HFF [2] amounted to 2.1 µM.

`C=CCn1cc(C#N)c2c(N)ncnc21` gave a Cytotoxicity in assay [3] of more than 100 µM. In the assay on HFF [2], this compound displayed an IC50 of more than 100 µM.
